Assay results as given in patent US20230159532A1, “PARATHYROID HORMONE (PTH) RECEPTOR ANTAGONISTS AND USES THEREOF” (Crinetics Pharmaceuticals, Inc., priority 2021, published 2023).

Target: T1, human PTHR1 receptor (Homo sapiens, UniProt Q03431)
T1 construct: purchased Eurofins HTS030M
T1 sequence (Q03431 27-593): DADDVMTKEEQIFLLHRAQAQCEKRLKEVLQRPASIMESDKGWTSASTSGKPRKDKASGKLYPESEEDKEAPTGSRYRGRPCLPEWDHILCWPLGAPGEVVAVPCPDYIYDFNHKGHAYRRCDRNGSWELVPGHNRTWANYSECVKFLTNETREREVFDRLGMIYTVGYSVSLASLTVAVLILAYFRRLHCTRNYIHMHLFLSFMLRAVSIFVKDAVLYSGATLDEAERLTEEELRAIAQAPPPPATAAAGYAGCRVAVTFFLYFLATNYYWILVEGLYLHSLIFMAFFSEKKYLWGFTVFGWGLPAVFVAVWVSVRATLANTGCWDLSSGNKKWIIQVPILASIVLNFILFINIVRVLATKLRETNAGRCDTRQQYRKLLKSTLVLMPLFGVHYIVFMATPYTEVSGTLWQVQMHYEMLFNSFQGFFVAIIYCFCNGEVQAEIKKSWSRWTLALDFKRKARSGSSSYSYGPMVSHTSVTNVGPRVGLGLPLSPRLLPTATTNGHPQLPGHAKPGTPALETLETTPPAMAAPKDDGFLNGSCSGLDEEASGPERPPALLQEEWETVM
Test: Competitive antagonist binding assay for hPTH-R1 (radioactive competition binding, SPA beads)
Conditions: human PTHR1 membranes, [125I]-[Nle8,18,Tyr34]-PTH(1-34) 0.2 nM, 90 minutes at room temperature; read-out: hPTHR1 Ki
Method in brief: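 Displacement of 0.2 nM radioiodinated [Nle8,18,Tyr34]-PTH(1-34) from membrane-bound human PTHR1 measured by scintillation proximity after 90 min at room temperature. Compounds typically 0-10,000 nM final, pH 7.4 HEPES/Mg/Ca buffer with BSA and detergent. Ki calculated from competition data.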

Row | Structure (SMILES) | Ki
1 | CNCCNc1cc(F)c(N2C(=O)N(CC(F)(F)F)c3ncc(Cl)cc3-c3ccc(Cl)cc32)c(F)c1 [1-45, 4,13-dichloro-10-(2,6-difluoro-4-{[2-(methylamino)ethyl]amino}phenyl)-8-(2,2,2-trifluoroethyl)-6,8,10-triazatricyclo[9.4.0.0^2,7]pentadeca-1(11),2(7),3,5,12,14-hexaen-9-one] | < 100 nM
2 | CCN1C(=O)N(c2c(F)cc(NCCN[C@H]3C[C@@H](O)C3)cc2F)c2cc(C#N)ccc2-c2cc(C(F)(F)F)cnc21 [1-207, 10-{2,6-difluoro-4-[(2-{[(1s,3s)-3-hydroxycyclobutyl]amino}ethyl)amino]phenyl}-8-ethyl-9-oxo-4-(trifluoromethyl)-6,8,10-triazatricyclo[9.4.0.0^2,7]pentadeca-1(11),2(7),3,5,12,14-hexaene-13-carbonitrile] | < 100 nM
3 | CCCN1C(=O)N(c2c(F)cc(NCCNCCO)cc2F)c2cc(C#N)ccc2-c2cc(Cl)cnc21 [1-120, 4-chloro-10-[2,6-difluoro-4-({2-[(2-hydroxyethyl)amino]ethyl}amino)phenyl]-9-oxo-8-propyl-6,8,10-triazatricyclo[9.4.0.0^2,7]pentadeca-1(11),2(7),3,5,12,14-hexaene-13-carbonitrile] | < 100 nM
4 | CCN1C(=O)N(c2c(F)cc(NCCNCCCC(=O)O)cc2F)c2cc(Cl)ccc2-c2cc(Cl)cnc21 [1-10, 4-({2-[(4-{4,13-dichloro-8-ethyl-9-oxo-6,8,10-triazatricyclo[9.4.0.0^2,7]pentadeca-1(11),2(7),3,5,12,14-hexaen-10-yl}-3,5-difluorophenyl)amino]ethyl}amino)butanoic Acid] | < 100 nM
5 | CCN1C(=O)N(c2c(F)cc(NCCN[C@H](C)C(=O)O)cc2F)c2cc(C#N)ccc2-c2cc(Cl)cnc21 [1-236, (2R)-2-({2-[(4-{4-chloro-13-cyano-8-ethyl-9-oxo-6,8,10-triazatricyclo[9.4.0.0^2,7]pentadeca-1(11),2(7),3,5,12,14-hexaen-10-yl}-3,5-difluorophenyl)amino]ethyl}amino)propanoic acid] | < 100 nM
6 | CCN1C(=O)N(c2c(F)cc(NCCNC)cc2F)c2cc(C#N)cc(F)c2-c2cc(F)cnc21 [1-102, 10-(2,6-difluoro-4-{[2-(methylamino)ethyl]amino}phenyl)-8-ethyl-4,15-difluoro-9-oxo-6,8,10-triazatricyclo[9.4.0.0^2,7]pentadeca-1(11),2(7),3,5,12,14-hexaene-13-carbonitrile] | < 100 nM
7 | CCN1C(=O)N(c2c(F)cc(NCCNCCCC(=O)O)cc2F)c2cc(Cl)cc(C)c2-c2cc(F)cnc21 [1-64, 4-({2-[(4-{13-chloro-8-ethyl-4-fluoro-15-methyl-9-oxo-6,8,10-triazatricyclo[9.4.0.0^2,7]pentadeca-1(11),2(7),3,5,12,14-hexaen-10-yl}-3,5-difluorophenyl)amino]ethyl}amino)butanoic acid] | < 100 nM
8 | CCN1C(=O)N(c2c(F)cc(NCCNCCCC(=O)O)cc2F)c2cc(Cl)cc(F)c2-c2cc(F)cnc21 [1-96, 4-({2-[(4-{13-chloro-8-ethyl-4,15-difluoro-9-oxo-6,8,10-triazatricyclo[9.4.0.0^2,7]pentadeca-1(11),2(7),3,5,12,14-hexaen-10-yl}-3,5-difluorophenyl)amino]ethyl}amino)butanoic acid] | < 100 nM
9 | CCN1C(=O)N(c2c(F)cc(NCCNCCNC(C)=O)cc2F)c2cc(C#N)ccc2-c2cc(Cl)cnc21 [1-168, N-[2-({2-[(4-{4-chloro-13-cyano-8-ethyl-9-oxo-6,8,10-triazatricyclo[9.4.0.0^2,7]pentadeca-1(15),2(7),3,5,11,13-hexaen-10-yl}-3,5-difluorophenyl)amino]ethyl}amino)ethyl]acetamide] | < 100 nM
10 | CCN1C(=O)N(c2c(F)cc(NCCN)cc2F)c2cc(Cl)ccc2-c2cc(Cl)cnc21 [1-9, 10-{4-[(2-aminoethyl)amino]-2,6-difluorophenyl}-4,13-dichloro-8-ethyl-6,8,10-triazatricyclo[9.4.0.0^2,7]pentadeca-1(11),2(7),3,5,12,14-hexaen-9-one] | < 100 nM
